Patent US8603528B2, “Compositions and method for the reduction of post-operative pain” (ABYRX, Inc., priority 2004, dated 2013)
“Also recorded” adds a separate entry of the source.

Assay: Evaluation of elution rates of analgesic from a 0.5 gm composition button in phosphate buffer, HPLC-UV
Assay type: physicochemical
Description: The surface area exposed to the buffer is about 0.785 sq. cm. One cc aliquots of the buffer solution are taken over a three day period, every 2 hours during business hours of day one, then several times on each of days two and three. […] The same procedure was followed for measurement of the elution of bupivacaine free base and hydrochloride.

SMILES	effect of the added material on the elution rate of the anesthetic from the putty	period over which the free base of lidocaine is eluted (liquid component of the putty changed from triethyl citrate to Pluronic L-35 and tocopheryl acetate)	period over which the free base of lidocaine is released (putty-like composition comprising lidocaine free base, calcium stearate and liquid triethyl citrate)
CCCCCCCCCCCCOC(C)=O [lauryl acetate]	retard the elution		
CCCCCCCCCCCC(=O)OCC [ethyl laurate]	retard the elution		
CCN(CC)CC(=O)Nc1c(C)cccc1C [lidocaine free base, lidocaine, reference compound]		eight	three
CC(=O)Oc1c(C)c(C)c2c(c1C)CCC(C)(CCC[C@H](C)CCC[C@H](C)CCCC(C)C)O2 (some centres unmarked) [tocopheryl acetate]	slow down the elution rate; also recorded: reduces the elution rate; also recorded: retard the elution		
